The test system of one data set is Hep3B (HCC) cells. The data set can be described thus: MTS cytotoxicity assay, Hep3B. The format is cell-based. To be noted: Homo sapiens, concentrations 1, 10, 50, 100, 300 µM, mean ± SD. The method, then:
(§1) Several tumor cell lines were used in this study including HeLa (cervical adenocarcinoma) HepG2, and Hep3B (HCC); B16F1 (melanoma); MCF-7 (breast carcinoma); Colo205 (colon adenocarcinoma); and CaCo-2 (colorectal adenocarcinoma), in addition to two normal cell lines LX-2 (human hepatic stellate) and Hek293t (kidney cell lines). All evaluated cells were incubated in RPMI-1640 medium and supplemented by 1% of Penicillin/Streptomycin antibiotics, 1% of l-glutamine, and 10% fetal bovine serum. The selected cells were cultivated at 37 °C in a wet environment containing 5% CO2.. In a 96-well plate, the seeding of cells was conducted as 2.5 × 10^4 cells per well. After 72 hr, the cells were confluent, the media was refreshed, and after that, all cells were incubated by several compounds’ concentrations (1, 10, 50, 100, and 300 µM). The viability of cells was investigated by the Cell Tilter 96® Aqueous One Solution Cell Proliferation (MTS) assay regarding the manufacturer’s instructions (Promega Corporation, Madison, WI). In the last step, 20 μL of MTS per 100 μL of media were added to each well and kept at 37 °C; after that at 490 nm wavelength the absorbance was collected.
In general terms: Tetrazolium dyes change colour on reduction, which living cells bring about.

For a further data set, the system named is B16F1 (melanoma) cells. The data set can be described thus: MTS cytotoxicity assay, B16F1. The format is cell-based. The following applies: Mus musculus, B16-F1, concentrations 1, 10, 50, 100, 300 µM, mean ± SD. The method, then: as §1
Data set [1] relates to Colo205 (colon adenocarcinoma) cells. The data set can be described thus: MTS cytotoxicity assay, Colo205. The format is cell-based. The following applies: Homo sapiens, COLO 205, concentrations 1, 10, 50, 100, 300 µM, mean ± SD. The method, then: as §1
Another data set concerns HepG2 (HCC) cells. The data set can be described thus: MTS cytotoxicity assay, HepG2. To be noted: Homo sapiens, concentrations 1, 10, 50, 100, 300 µM, mean ± SD. The format is cell-based. Here is the method: as §1
Data set [2] deals with CaCo-2 (colorectal adenocarcinoma) cells. The data set can be described thus: MTS cytotoxicity assay, CaCo-2. The format is cell-based. To be noted: Homo sapiens, concentrations 1, 10, 50, 100, 300 µM, mean ± SD. The method, then:
as §1

Data set [3] deals with HeLa (cervical adenocarcinoma) cells. The data set can be described thus: MTS cytotoxicity assay, HeLa. The format is cell-based. The following applies: Homo sapiens, concentrations 1, 10, 50, 100, 300 µM, mean ± SD. The method, then: as §1
In data set [4] the test system is MCF-7 (breast carcinoma) cells. The data set can be described thus: MTS cytotoxicity assay, MCF-7. The following applies: Homo sapiens, MCF7, concentrations 1, 10, 50, 100, 300 µM, mean ± SD. The format is cell-based. The method, then: as §1
Data set [5] has as its system LX-2 (human hepatic stellate) cells. The data set can be described thus: MTS cytotoxicity assay, normal cell line LX-2. The format is cell-based. The following applies: concentrations 1, 10, 50, 100, 300 µM. Here is the method:
as §1

Data set [6] concerns Hek293t (kidney cell lines). The data set can be described thus: MTS cytotoxicity assay, normal cell line Hek293t. The format is cell-based. To be noted: Homo sapiens, HEK-293T, concentrations 1, 10, 50, 100, 300 µM, mean ± SD. The method, then: as §1
The next data set deals with Hep3B liver cancer cells. The data set can be described thus: Hepatocellular carcinoma spheroids formation test (3D). The following applies: 24 h; for Effect on Hep3B spheroid formation: 17 μg/mL, compared to non-treated cells. The format is cell-based. The method, then:
Hep3B liver cancer cells (4 × 10^3 per well) were seeded in round-bottomed supra-low attachment well plates over 24 h in the presence of 2b or 2e (17 μg/mL). Doxorubicin, a chemotherapeutic medication, was used as a positive control (100 μg/mL). Images of the formed spheroids/clusters were captured at 0 h and 24 h using an inverted microscope with a final magnification of 100×. The photographs of the spheroids were assessed and quantified using ImageJ software.

The conditions of data set [7]: cited from earlier work.
For data set [8] the following is noted: cited from earlier work. The source holds these as a separate data set.
For data set [9] the following is noted: cited from earlier work. This is another data set of the same source.
Data set [10] has as its system Hep3B (HCC). To be noted: cited from earlier work.
The test system of data set [11] is Hep3B (HCC). Set-up: method as in PMID 33763478. The following applies: cited from earlier work.

≈ marks a conversion by molar mass, not a printed value. Where two headings read alike, the source gives them in different places. Where only a bound is given, the exact number is not on record here.

As to `O=C(Nc1ccccc1)c1ccc(-c2ccc(F)cc2)s1` [2a, 5-(4-fluorophenyl)-N-phenylthiophene-2-carboxamide], the melting point (usually the temperature of the solid-liquid transition) was 203.5 to 205 °C. Half-maximal inhibition in the data set with Hep3B (HCC) cells (IC50) required 28 ± 2.05 µM. The IC50 (in general, the point on the concentration scale where inhibition reaches its midpoint) in the data set on B16F1 (melanoma) cells is over 300 µM. In data set [1], the IC50 is over 300 µM. In the data set with HepG2 (HCC) cells, this compound came in with an IC50 of 283.7 ± 1.79 µM. The same compound came in with an IC50 in data set [2] of over 300 µM. The same compound gave an IC50 in [3] of over 300 µM. This compound also registered an IC50 in data set [4] of over 300 µM. In data set [5], the concentration for half-maximal inhibition (IC50) is over 300 µM. In [6], this compound displayed an IC50 of over 300 µM.
`COc1cc(NC(=O)c2ccc(-c3ccc(F)cc3)s2)cc(OC)c1OC` [2b, 5-(4-fluorophenyl)-N-(3,4,5-trimethoxyphenyl) thiophene-2-carboxamide]: the melting point was 190.8 to 192 °C. The compound also gave a half-maximal inhibitory concentration (IC50) in the data set with Hep3B (HCC) cells of 5.46 ± 1.47 µM. This compound also returned an IC50 in the data set with B16F1 (melanoma) cells of over 300 µM. Moreover, the midpoint of inhibition in [1], the IC50, lay at 35.1 ± 2.05 µM. In addition, the IC50 with HepG2 (HCC) cells is over 300 µM. In [2], this compound came in with an IC50 of over 300 µM. This compound also showed an IC50 in data set [3] of 205 µM. The compound also returned an IC50 in data set [4] of 29.7 ± 2.74 µM. Also, the IC50 in data set [5] was over 300 µM. In addition, in data set [6], 278.1 ± 2.75 µM corresponded to half-maximal inhibition (IC50). For the same compound, the “Effect on Hep3B spheroid formation” value with Hep3B liver cancer cells is listed as “significantly smaller spheroid”.
`CC(C)(C)c1ccc(NC(=O)c2ccc(-c3ccc(F)cc3)s2)cc1` [2c, N-(4-(tert-butyl)phenyl)-5-(4-fluorophenyl) thiophene-2-carboxamide] yielded a melting point of 218.5 to 220.4 °C. The IC50 in the data set with Hep3B (HCC) cells turned out to be 189 ± 2.78 µM. The same compound came in with an IC50 with B16F1 (melanoma) cells of over 300 µM. The compound also yielded an IC50 in data set [1] of over 300 µM. For the same compound, the IC50 in the data set with HepG2 (HCC) cells is over 300 µM. For the same compound, the IC50 in data set [2] was over 300 µM. In data set [3], this compound displayed an IC50 of over 300 µM. In data set [4], this compound gave an IC50 of over 300 µM. Moreover, the IC50 in [5] was over 300 µM. This compound yielded an IC50 in data set [6] of over 300 µM.
As for `COc1cc(NC(=O)c2ccc(-c3ccc(F)cc3)s2)cc(OC)c1` [2d, N-(3,5-dimethoxyphenyl)-5-(4-fluorophenyl) thiophene-2-carboxamide], the melting point lay in the range of 156.5 to 157 °C. This compound showed an IC50 in the data set with Hep3B (HCC) cells of 8.85 ± 1.45 µM. The compound also displayed an IC50 in the data set on B16F1 (melanoma) cells of over 300 µM. The compound also returned an IC50 in data set [1] of over 300 µM. Further, the IC50 with HepG2 (HCC) cells is over 300 µM. In [2], this compound came in with an IC50 of over 300 µM. The IC50 in [3] is over 300 µM. For the same compound, the IC50 in data set [4] was over 300 µM. This compound returned an IC50 in data set [5] of over 300 µM. This compound also registered an IC50 in data set [6] of over 300 µM.
In turn, `COc1cc(NC(=O)c2ccc(-c3ccc(F)cc3)s2)c(OC)cc1Cl` [2e, N-(4-chloro-2,5-dimethoxyphenyl)-5-(4-flurophenyl)thiophene-2-carboxamide] had a melting point of 185.5 to 187.5 °C. The compound further registered an IC50 in the data set with Hep3B (HCC) cells of 12.6 ± 2.57 µM. In the data set on B16F1 (melanoma) cells, this compound displayed an IC50 of 112 ± 1.99 µM. Moreover, the IC50 in data set [1] came out at 74.8 ± 1.45 µM. Moreover, the IC50 in the data set on HepG2 (HCC) cells was determined as 18.2 ± 0.78 µM. In data set [2], this compound yielded an IC50 of 82.9 ± 2.45 µM. This compound registered an IC50 in data set [3] of 39.6 ± 1.88 µM. In data set [4], this compound had an IC50 of 42.5 ± 2.59 µM. This compound also registered an IC50 in data set [5] of over 300 µM. The compound further showed an IC50 in data set [6] of 105 ± 1.08 µM. Also, the “Effect on Hep3B spheroid formation” value in the data set with Hep3B liver cancer cells is “inhibited spheroid formation”.
For `COc1ccc(/C=C\c2cc(OC)c(OC)c(OC)c2)cc1O` [CA-4, Combretastatin A-4], in [7], the Water solubility entry is listed as “poor”. In data set [8], the Plasma half-life result is “short”. In addition, the Chemical stability entry in data set [9] is given as “chemical instability”.
In the case of `COc1cccc2c1C(=O)c1c(O)c3c(c(O)c1C2=O)C[C@@](O)(C(=O)CO)C[C@@H]3O[C@H]1C[C@H](N)[C@H](O)[C@H](C)O1` [DOX, Doxorubicin, reference compound], the 50% inhibitory concentration (IC50) in the data set with Hep3B (HCC) cells is 1.21 ± 1 µM; in the data set with B16F1 (melanoma) cells it was under 1 µM; in [1] it was under 1 µM; in the data set with HepG2 (HCC) cells, 1.6 ± 0.67 µM; in data set [2], under 1 µM; in data set [3], 1.55 ± 1.35 µM. For the same compound, the IC50 was under 1 µM in data set [4], under 1 µM in [5] and 1.24 ± 0.87 µM in data set [6]. For the same compound, in the data set on Hep3B liver cancer cells (100 μg/mL), the “Effect on Hep3B spheroid formation (positive control)” value is reported as “no recognized sphere formation”.
As to `COc1ccc(OC)c(NC(=O)c2c(-c3ccccc3Cl)noc2C)c1` [St.1, 3-(2-chlorophenyl)-N-(2,5-dimethoxyphenyl)-5-methylisoxazole-4-carboxamide], in the data set on Hep3B (HCC) [10] (earlier isoxazole-carboxamide series, ortho halogen), the “IC50 against Hep3B” value is reported as 23 µg/mL (≈ 61.7 µM). The Cell cycle effect result in the data set with Hep3B (HCC) [11] is “cell cycle arrest in the G2/M phase”.
`COc1ccc(NC(=O)c2c(-c3ccc(F)cc3)noc2C)cc1OC` [St.2, N-(3,4-dimethoxyphenyl)-3-(4-fluorophenyl)-5-methylisoxazole-4-carboxamide]: in the data set on Hep3B (HCC) [10] (earlier fluorophenyl-isoxazole series, para halogen), the “IC50 against Hep3B” value was 7.66 µg/mL (≈ 21.5 µM).
In the case of `Cc1onc(-c2c(F)cccc2Cl)c1C(=O)Nc1ccc(C(C)(C)C)cc1` [St.3, N-(4-(tert-butyl)phenyl)-3-(2-chloro-6-fluorophenyl)-5-methylisoxazole-4-carboxamide], the “IC50 against Hep3B” value in the data set with Hep3B (HCC) [10] (earlier series with two halogens at ortho positions) is recorded as 2.77 µg/mL (≈ 7.16 µM).
